Results: PubChem BioAssay AID1963826 (Molecular Pharmacology Branch, DTP, NCI, 2024)

Tested on: 926638-142-R-J1-PDC complex spheroid viability
Test: Anticancer human tumor 926638-142-R-J1-PDC patient-derived endometrial carcinoma cell line growth inhibition [POLQ]
Conditions: for IC50: curve of first compound; for viability, T/C: stronger effect = lower value
How it was run: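 Complex spheroid viability model combining PDC tumour cells with endothelial (HUVEC) and MSC stromal cells. Novobiocin, ART-558 or RP6685 were tested singly and in combination with standard and investigational anticancer drugs. Each was titrated in half-log steps from near clinical Cmax, or from 10 microM where Cmax was unknown.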

[1] = second compound 0.0316 µM, first compound 0.0316 µM
[2] = second compound 0.0316 µM, first compound 0.1 µM
[3] = second compound 0.0316 µM, first compound 0.316 µM
[4] = second compound 0.0316 µM, first compound 1 µM
[5] = second compound 0.0316 µM, first compound 3.16 µM
[6] = second compound 0.0316 µM, first compound 10 µM
[7] = second compound 0.1 µM, first compound 0.0316 µM
[8] = second compound 0.1 µM, first compound 0.1 µM
[9] = second compound 0.1 µM, first compound 0.316 µM
[10] = second compound 0.1 µM, first compound 1 µM
[11] = second compound 0.1 µM, first compound 3.16 µM
[12] = second compound 0.1 µM, first compound 10 µM
[13] = second compound 0.316 µM, first compound 0.0316 µM
[14] = second compound 0.316 µM, first compound 0.1 µM
[15] = second compound 0.316 µM, first compound 0.316 µM
[16] = second compound 0.316 µM, first compound 1 µM
[17] = second compound 0.316 µM, first compound 3.16 µM
[18] = second compound 0.316 µM, first compound 10 µM
[19] = second compound 1 µM, first compound 0.0316 µM
[20] = second compound 1 µM, first compound 0.1 µM
[21] = second compound 1 µM, first compound 0.316 µM
[22] = second compound 1 µM, first compound 1 µM
[23] = second compound 1 µM, first compound 3.16 µM
[24] = second compound 1 µM, first compound 10 µM
[25] = second compound 3.16 µM, first compound 0.0316 µM
[26] = second compound 3.16 µM, first compound 0.1 µM
[27] = second compound 3.16 µM, first compound 0.316 µM
[28] = second compound 3.16 µM, first compound 1 µM
[29] = second compound 3.16 µM, first compound 3.16 µM
[30] = second compound 3.16 µM, first compound 10 µM
[31] = second compound 10 µM, first compound 0.0316 µM
[32] = second compound 10 µM, first compound 0.1 µM
[33] = second compound 10 µM, first compound 0.316 µM
[34] = second compound 10 µM, first compound 1 µM
[35] = second compound 10 µM, first compound 3.16 µM
[36] = second compound 10 µM, first compound 10 µM
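Note: spheroids exposed to drugs for one week before readout.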
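Throughout, for viability, T/C: percent viability relative to DMSO vehicle control wells set as 100%.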

**Q.** For `COc1cc(C2c3cc4c(cc3C(OC3OC5COC(C)OC5C(O)C3O)C3COC(=O)C23)OCO4)cc(OC)c1O` (stereo unspecified) + Cc1cccc(N(C)C(=O)C2C(O)CCN2c2nc(C)cc(C(F)(F)F)c2C#N)c1, which IC50 (second compound 0.0316 µM) is on record?
**A.** > 10 µM

**Q.** What about the IC50 (second compound 0.1 µM) of the same compound?
**A.** > 10 µM

**Q.** What about the IC50 (second compound 0.316 µM) of the same compound?
**A.** > 10 µM

**Q.** What about the IC50 (second compound 1 µM) of the same compound?
**A.** > 10 µM

**Q.** What about the IC50 (second compound 3.16 µM) of the same compound?
**A.** > 10 µM

**Q.** What about the IC50 (second compound 10 µM) of the same compound?
**A.** > 10 µM

**Q.** And the viability, T/C [1]?
**A.** 83.5%

**Q.** And the viability, T/C [2]?
**A.** 62.5%

**Q.** What about the viability, T/C [3] of the same compound?
**A.** 72%

**Q.** What about the viability, T/C [4] of the same compound?
**A.** 73%

**Q.** What about the viability, T/C [5] of the same compound?
**A.** 56%

**Q.** And the viability, T/C [6]?
**A.** 60.1%

**Q.** And the viability, T/C [7]?
**A.** 76.8%

**Q.** What about the viability, T/C [8] of the same compound?
**A.** 71.4%

**Q.** What about the viability, T/C [9] of the same compound?
**A.** 72.3%

**Q.** And the viability, T/C [10]?
**A.** 62.7%

**Q.** What about the viability, T/C [11] of the same compound?
**A.** 67.7%

**Q.** What about the viability, T/C [12] of the same compound?
**A.** 56%

**Q.** And the viability, T/C [13]?
**A.** 95.5%

**Q.** And the viability, T/C [14]?
**A.** 84.1%

**Q.** And the viability, T/C [15]?
**A.** 77%

**Q.** What about the viability, T/C [16] of the same compound?
**A.** 57.6%

**Q.** And the viability, T/C [17]?
**A.** 63.9%

**Q.** What about the viability, T/C [18] of the same compound?
**A.** 49.1%

**Q.** And the viability, T/C [19]?
**A.** 89.3%

**Q.** What about the viability, T/C [20] of the same compound?
**A.** 80.8%

**Q.** And the viability, T/C [21]?
**A.** 72.2%

**Q.** And the viability, T/C [22]?
**A.** 77.9%

**Q.** What about the viability, T/C [23] of the same compound?
**A.** 67.8%

**Q.** And the viability, T/C [24]?
**A.** 61.3%

**Q.** And the viability, T/C [25]?
**A.** 75.8%

**Q.** And the viability, T/C [26]?
**A.** 71.8%

**Q.** And the viability, T/C [27]?
**A.** 69.9%

**Q.** What about the viability, T/C [28] of the same compound?
**A.** 79.3%

**Q.** What about the viability, T/C [29] of the same compound?
**A.** 62.7%

**Q.** And the viability, T/C [30]?
**A.** 50.2%

**Q.** And the viability, T/C [31]?
**A.** 80.1%

**Q.** What about the viability, T/C [32] of the same compound?
**A.** 83.9%

**Q.** What about the viability, T/C [33] of the same compound?
**A.** 73.6%

**Q.** What about the viability, T/C [34] of the same compound?
**A.** 70.9%

**Q.** And the viability, T/C [35]?
**A.** 59%

**Q.** And the viability, T/C [36]?
**A.** 60.6%

**Q.** Which results are given for `Nc1ccn(C2OC(CO)C(O)C2(F)F)c(=O)n1` (stereo unspecified) + Cc1cccc(N(C)C(=O)C2C(O)CCN2c2nc(C)cc(C(F)(F)F)c2C#N)c1?
**A.** IC50 (second compound 0.0316 µM): 1.3 µM; IC50 (second compound 0.1 µM): 1.73 µM; IC50 (second compound 0.316 µM): 0.844 µM; IC50 (second compound 1 µM): 0.624 µM; IC50 (second compound 3.16 µM): 0.821 µM; IC50 (second compound 10 µM): 0.535 µM; viability, T/C [1]: 88.1%; viability, T/C [2]: 66.7%; viability, T/C [3]: 54.9%; viability, T/C [4]: 62.1%; viability, T/C [5]: 44.8%; viability, T/C [6]: 20.9%; viability, T/C [7]: 81.3%; viability, T/C [8]: 68.9%; viability, T/C [9]: 57.9%; viability, T/C [10]: 62.2%; viability, T/C [11]: 46%; viability, T/C [12]: 22.8%; viability, T/C [13]: 97.1%; viability, T/C [14]: 64.6%; viability, T/C [15]: 60.8%; viability, T/C [16]: 51.4%; viability, T/C [17]: 43.7%; viability, T/C [18]: 26.2%; viability, T/C [19]: 80.8%; viability, T/C [20]: 62.1%; viability, T/C [21]: 53.8%; viability, T/C [22]: 46.5%; viability, T/C [23]: 44.2%; viability, T/C [24]: 22.4%; viability, T/C [25]: 89.4%; viability, T/C [26]: 63.6%; viability, T/C [27]: 48.5%; viability, T/C [28]: 60.4%; viability, T/C [29]: 45.1%; viability, T/C [30]: 28%; viability, T/C [31]: 85.1%; viability, T/C [32]: 70.5%; viability, T/C [33]: 52%; viability, T/C [34]: 44.5%; viability, T/C [35]: 41.4%; viability, T/C [36]: 32.5%

**Q.** What does the source list for `O=C(c1cc(Cc2n[nH]c(=O)c3ccccc23)ccc1F)N1CCN(C(=O)C2CC2)CC1` + Cc1cccc(N(C)C(=O)C2C(O)CCN2c2nc(C)cc(C(F)(F)F)c2C#N)c1?
**A.** IC50 (second compound 0.0316 µM): > 10 µM; IC50 (second compound 0.1 µM): > 10 µM; IC50 (second compound 0.316 µM): > 10 µM; IC50 (second compound 1 µM): > 10 µM; IC50 (second compound 3.16 µM): > 10 µM; IC50 (second compound 10 µM): > 10 µM; viability, T/C [1]: 102%; viability, T/C [2]: 93%; viability, T/C [3]: 92.1%; viability, T/C [4]: 87.2%; viability, T/C [5]: 74.5%; viability, T/C [6]: 79.1%; viability, T/C [7]: 114%; viability, T/C [8]: 87.8%; viability, T/C [9]: 92.4%; viability, T/C [10]: 88.3%; viability, T/C [11]: 77.6%; viability, T/C [12]: 79.1%; viability, T/C [13]: 101%; viability, T/C [14]: 91.6%; viability, T/C [15]: 82.9%; viability, T/C [16]: 85.9%; viability, T/C [17]: 85.8%; viability, T/C [18]: 86.5%; viability, T/C [19]: 86.5%; viability, T/C [20]: 83.5%; viability, T/C [21]: 91.5%; viability, T/C [22]: 91.8%; viability, T/C [23]: 67.5%; viability, T/C [24]: 87.2%; viability, T/C [25]: 76.4%; viability, T/C [26]: 98.2%; viability, T/C [27]: 101%; viability, T/C [28]: 79.9%; viability, T/C [29]: 86.3%; viability, T/C [30]: 69.8%; viability, T/C [31]: 72.3%; viability, T/C [32]: 80%; viability, T/C [33]: 78.9%; viability, T/C [34]: 75.7%; viability, T/C [35]: 69.8%; viability, T/C [36]: 71.1%
